Laboratory results as given in PubChem BioAssay AID242 (DTP/NCI, 2004).
Several values for one entry are separate records, joined by “and”; a condition that tells them apart may be missing. Equal values may be shown once. Inconclusive results and toxic doses are left out.

Test system: BDF1 mice, Lymphoma 8 ip, survival T/C
Assay: NCI In Vivo Anticancer Drug Screen. Data for tumor model Lymphoma 8 (intraperitoneal) in B6D2F1 (BDF1) mice
Settings: endpoint: survival time, mean or median, higher = longer survival
Procedure: The antitumor activity of compounds was measured in mice bearing transplantable tumors. Survival or tumor size were measured and the results are expressed as the measurement made in the treated group (T) divided by the measurement made in the vehicle treated control group (C). The tumor model used in this assay is Lymphoma 8 (intraperitoneal) in B6D2F1 (BDF1) mice

[1] = dose: 62.5 mg/kg/injection, schedule: Q01DX010 (ip), vehicle: saline
[2] = dose: 18.8 mg/kg/injection, schedule: Q01DX010 (ip), vehicle: saline
[3] = dose: 37.5 mg/kg/injection, schedule: Q01DX010 (ip), vehicle: saline
[4] = dose: 75.0 mg/kg/injection, schedule: Q01DX010 (ip), vehicle: saline
[5] = dose: 5.0 mg/kg/injection, schedule: Q01DX010 (ip), vehicle: saline

SMILES: CCn1cnc2c(=S)nc[nH]c21
- T/C (dose: 15.6 mg/kg/injection, schedule: Q01DX010 (ip), vehicle: saline): 91 % of control and 100 % of control
- T/C (dose: 31.3 mg/kg/injection, schedule: Q01DX010 (ip), vehicle: saline): 100 % of control
- T/C [1]: 92 % of control and 100 % of control

SMILES: CS(=O)(=O)OCCCl
- T/C (dose: 9.4 mg/kg/injection, schedule: Q01DX010 (ip), vehicle: saline): 107 % of control
- T/C [2]: 91 % of control and 96 % of control
- T/C [3]: 91 % of control and 100 % of control
- T/C [4]: 91 % of control and 96 % of control

SMILES: Oc1cc(CN(CCCl)CCCl)c(O)cc1CN(CCCl)CCCl
- T/C (dose: 0.63 mg/kg/injection, schedule: Q01DX010 (ip), vehicle: saline): 104 % of control and 107 % of control
- T/C (dose: 1.25 mg/kg/injection, schedule: Q01DX010 (ip), vehicle: saline): 104 % of control
- T/C [5]: 103 % of control and 120 % of control

SMILES: C1CN1c1nc(N2CC2)nc(N2CC2)n1
- T/C (dose: 0.13 mg/kg/injection, schedule: Q01DX010 (ip), vehicle: saline): 91 % of control and 100 % of control
- T/C (dose: 0.25 mg/kg/injection, schedule: Q01DX010 (ip), vehicle: saline): 100 % of control and 104 % of control
- T/C (dose: 0.5 mg/kg/injection, schedule: Q01DX010 (ip), vehicle: saline): 166 % of control
- T/C (dose: 1.0 mg/kg/injection, schedule: Q01DX010 (ip), vehicle: saline): 87 % of control

SMILES: Nc1nc(SCc2ccccc2)c2[nH]cnc2n1
- T/C (dose: 8.0 mg/kg/injection, schedule: Q01DX010 (ip), vehicle: saline): 91 % of control and 107 % of control
- T/C (dose: 16.0 mg/kg/injection, schedule: Q01DX010 (ip), vehicle: saline): 100 % of control and 103 % of control
- T/C (dose: 32.0 mg/kg/injection, schedule: Q01DX010 (ip), vehicle: saline): 100 % of control and 103 % of control
- T/C (dose: 64.0 mg/kg/injection, schedule: Q01DX010 (ip), vehicle: saline): 91 % of control

SMILES: O=c1cnn(C2OC(CO)C(O)C2O)c(=O)[nH]1 (stereo not drawn)
- T/C (dose: 200.0 mg/kg/injection, schedule: Q01DX008 (ip), vehicle: saline): 115 % of control
- T/C (dose: 800.0 mg/kg/injection, schedule: Q01DX008 (ip), vehicle: saline): 96 % of control

SMILES: OCC1OC(n2cnc3c(Cl)ncnc32)C(O)C1O (stereo not drawn)
- T/C [1]: 90 % of control and 105 % of control
- T/C (dose: 125.0 mg/kg/injection, schedule: Q01DX010 (ip), vehicle: saline): 95 % of control and 100 % of control and 105 % of control
- T/C (dose: 250.0 mg/kg/injection, schedule: Q01DX010 (ip), vehicle: saline): 90 % of control and 95 % of control and 105 % of control
- T/C (dose: 500.0 mg/kg/injection, schedule: Q01DX010 (ip), vehicle: saline): 97 % of control and 104 % of control and 115 % of control

SMILES: CN(C)c1nc(N(C)C)nc(N(C)C)n1
- T/C [2]: 104 % of control and 122 % of control
- T/C [3]: 95 % of control and 113 % of control
- T/C [4]: 100 % of control
- T/C (dose: 150.0 mg/kg/injection, schedule: Q01DX010 (ip), vehicle: saline): 100 % of control

SMILES: CC(=O)OCC1OC(n2cnc3c(=S)nc(N)[nH]c32)C(OC(C)=O)C1OC(C)=O (stereo not drawn)
- T/C (dose: 12.5 mg/kg/injection, schedule: Q01DX015 (ip), vehicle: other): 106 % of control
- T/C (dose: 25.0 mg/kg/injection, schedule: Q01DX015 (ip), vehicle: other): 107 % of control
- T/C (dose: 50.0 mg/kg/injection, schedule: Q01DX015 (ip), vehicle: other): 97 % of control

SMILES: N[C@@H](Cc1ccc(N(CCCl)CCCl)cc1)C(=O)O
- T/C (dose: 4.0 mg/kg/injection, schedule: Q01DX015 (ip), vehicle: carboxymethylcellulose (CMC)): 91 % of control

SMILES: S=P(N1CCOCC1)(N1CC1)N1CC1
- T/C (dose: 2.5 mg/kg/injection, schedule: Q01DX010 (ip), vehicle: saline): 100 % of control and 113 % of control
- T/C [5]: 104 % of control and 109 % of control
- T/C (dose: 10.0 mg/kg/injection, schedule: Q01DX010 (ip), vehicle: saline): 113 % of control
- T/C (dose: 20.0 mg/kg/injection, schedule: Q01DX010 (ip), vehicle: saline): 86 % of control and 122 % of control

SMILES: Nc1ccc(OC(=O)Oc2ccc(N)cc2)cc1
- T/C (dose: 25.0 mg/kg/injection, schedule: Q01DX015 (ip), vehicle: saline): 105 % of control
- T/C (dose: 50.0 mg/kg/injection, schedule: Q01DX015 (ip), vehicle: saline): 91 % of control
- T/C (dose: 100.0 mg/kg/injection, schedule: Q01DX015 (ip), vehicle: saline): 111 % of control
- T/C (dose: 200.0 mg/kg/injection, schedule: Q01DX015 (ip), vehicle: saline): 106 % of control

SMILES: CSc1ncnc2nc[nH]c12
- T/C (dose: 25.0 mg/kg/injection, schedule: Q01DX010 (ip), vehicle: saline): 103 % of control
- T/C (dose: 50.0 mg/kg/injection, schedule: Q01DX010 (ip), vehicle: saline): 103 % of control
- T/C (dose: 100.0 mg/kg/injection, schedule: Q01DX010 (ip), vehicle: saline): 100 % of control
